Experimental data taken from patent US11021444B2, “Antiviral compounds” (priority 2013, dated 2021).
Read-outs that look alike come from different tables or passages of the source.

Key:
[1] = tested on: Respiratory Syncytial Virus (RSV) long strain; experiment: microbe, parasite or virus in culture; type: cell-based; details: human respiratory syncytial virus, Tables A and B list compounds by EC50 band
In short: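 CPE-reduction format: viability measured colorimetrically with CCK-8 (450 nm, 630 nm reference) after 3-4 h, following 5-day infection at 37 °C, 5% CO2. Cells were HEp-2; inoculum 100 TCID50/well; duplicate 9-point 1/3 series starting at 100 μM or 1 μM.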

[2] = Cytotoxicity Determination (CCK-8, without addition of virus); type: cell-based; details: human, 50% cytotoxicity concentration (CC50)
In short: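 Cytotoxicity was measured by CCK-8 after 3-4 hours at 37 °C, following 5 days of uninfected exposure at 37 °C and 5% CO2. Compounds ran as duplicate 7-point 1/2 dilutions starting at 100 μM, with 1% final DMSO. HEp-2 cells had been plated at 1,500/well the day before.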

recombinant RSV complex = recombinant RSV complex (Human respiratory syncytial virus A, UniProt P28887); experiment: RSV Polymerase Inhibition Assay; type: biochemical
In short: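 Inhibition measured as reduced incorporation of radiolabel into RNA products, detected by scintillation counting. Reactions: recombinant RSV complex (10 nM), RNA oligonucleotides, Tris-HCl pH 7.5, 6 mM MgCl2, inhibitor titration, 2 h at 30 °C, EDTA stop.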

RSV replicon = experiment: microbe, parasite or virus in culture; type: cell-based; details: human respiratory syncytial virus, read-out: EC50, the concentration of the drug required for reducing RSV replicon RNA by 50%
[3] = HEp-2, 120 h, read-out: 50% effective concentration (EC50), HEp-2 cells infected with RSV long strain, 5 days, CCK-8 readout
[4] = 120 h, read-out: 50% effective concentration (EC50), HEp-2 cells infected with RSV long strain, 5 days, CCK-8 readout

Chain of recombinant RSV complex (P28887 whole entry): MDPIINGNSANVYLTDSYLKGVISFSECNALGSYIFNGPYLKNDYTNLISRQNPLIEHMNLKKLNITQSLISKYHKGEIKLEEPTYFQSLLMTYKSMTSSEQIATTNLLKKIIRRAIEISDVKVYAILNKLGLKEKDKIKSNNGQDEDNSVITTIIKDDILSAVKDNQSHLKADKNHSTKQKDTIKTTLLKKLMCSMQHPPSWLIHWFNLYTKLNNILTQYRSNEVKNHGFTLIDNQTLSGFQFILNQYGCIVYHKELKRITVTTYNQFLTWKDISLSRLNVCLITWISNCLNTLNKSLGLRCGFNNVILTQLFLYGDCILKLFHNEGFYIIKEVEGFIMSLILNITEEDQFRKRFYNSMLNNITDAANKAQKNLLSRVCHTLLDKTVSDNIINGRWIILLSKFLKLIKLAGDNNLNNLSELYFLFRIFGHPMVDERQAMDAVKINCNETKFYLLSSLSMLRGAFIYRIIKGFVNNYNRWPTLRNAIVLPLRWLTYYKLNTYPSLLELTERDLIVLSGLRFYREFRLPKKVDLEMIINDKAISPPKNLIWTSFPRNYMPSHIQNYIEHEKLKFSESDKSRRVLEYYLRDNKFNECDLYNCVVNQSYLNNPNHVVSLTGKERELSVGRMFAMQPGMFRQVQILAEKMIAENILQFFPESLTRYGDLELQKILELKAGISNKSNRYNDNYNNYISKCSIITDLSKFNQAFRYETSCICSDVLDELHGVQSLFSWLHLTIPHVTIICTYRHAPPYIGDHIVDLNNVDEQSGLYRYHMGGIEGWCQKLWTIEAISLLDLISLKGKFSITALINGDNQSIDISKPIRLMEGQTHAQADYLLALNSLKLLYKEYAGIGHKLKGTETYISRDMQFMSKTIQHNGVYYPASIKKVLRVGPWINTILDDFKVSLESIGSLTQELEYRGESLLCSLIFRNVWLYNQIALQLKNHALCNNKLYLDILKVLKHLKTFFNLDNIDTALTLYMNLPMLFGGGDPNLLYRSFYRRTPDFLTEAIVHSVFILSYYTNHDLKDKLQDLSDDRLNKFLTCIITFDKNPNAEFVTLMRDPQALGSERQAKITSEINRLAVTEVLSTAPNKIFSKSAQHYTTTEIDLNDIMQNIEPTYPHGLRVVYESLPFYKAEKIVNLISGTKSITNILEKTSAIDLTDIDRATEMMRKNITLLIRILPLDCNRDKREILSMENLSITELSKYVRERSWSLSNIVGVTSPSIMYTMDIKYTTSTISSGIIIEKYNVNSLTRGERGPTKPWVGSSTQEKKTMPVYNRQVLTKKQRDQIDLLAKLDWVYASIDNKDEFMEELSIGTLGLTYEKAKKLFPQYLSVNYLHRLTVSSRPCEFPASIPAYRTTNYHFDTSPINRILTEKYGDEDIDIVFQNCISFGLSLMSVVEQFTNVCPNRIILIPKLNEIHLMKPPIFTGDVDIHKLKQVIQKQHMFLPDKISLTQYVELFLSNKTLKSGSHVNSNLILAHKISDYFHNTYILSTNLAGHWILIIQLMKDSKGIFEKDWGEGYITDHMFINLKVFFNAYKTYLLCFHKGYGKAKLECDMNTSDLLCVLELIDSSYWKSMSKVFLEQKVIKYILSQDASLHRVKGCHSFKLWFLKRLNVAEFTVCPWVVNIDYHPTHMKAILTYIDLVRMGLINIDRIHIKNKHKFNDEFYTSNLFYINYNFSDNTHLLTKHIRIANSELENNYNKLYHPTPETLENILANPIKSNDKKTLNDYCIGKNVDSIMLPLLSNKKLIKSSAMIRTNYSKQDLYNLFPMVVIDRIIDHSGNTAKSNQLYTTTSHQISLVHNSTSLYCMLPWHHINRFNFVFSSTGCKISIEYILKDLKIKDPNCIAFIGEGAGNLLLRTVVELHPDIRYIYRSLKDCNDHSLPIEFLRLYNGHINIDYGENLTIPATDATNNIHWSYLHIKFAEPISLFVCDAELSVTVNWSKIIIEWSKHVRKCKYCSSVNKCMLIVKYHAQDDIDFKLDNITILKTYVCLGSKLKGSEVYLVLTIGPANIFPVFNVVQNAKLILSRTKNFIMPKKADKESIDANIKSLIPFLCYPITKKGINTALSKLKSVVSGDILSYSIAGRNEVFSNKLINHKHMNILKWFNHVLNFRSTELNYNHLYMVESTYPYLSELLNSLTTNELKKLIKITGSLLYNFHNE
Chain of recombinant RSV complex (P03421 whole entry, further chain): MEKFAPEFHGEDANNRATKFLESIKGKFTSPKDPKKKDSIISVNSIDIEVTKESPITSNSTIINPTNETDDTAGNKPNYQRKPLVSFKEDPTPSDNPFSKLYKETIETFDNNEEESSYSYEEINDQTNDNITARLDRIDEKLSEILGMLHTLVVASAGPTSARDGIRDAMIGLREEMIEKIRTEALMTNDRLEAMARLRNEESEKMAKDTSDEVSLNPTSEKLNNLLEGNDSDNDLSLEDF

Compound	EC50 [1, 3]	CC50 at 5 days [2]	IC50 (recombinant RSV complex)	EC50 (RSV replicon)	EC50 [1, 4]
COc1cc(C(=O)NCC(O)(c2ccc(OC)c(-c3ccc(F)c(Cl)c3)n2)C(F)(F)F)ccc1OC1CC(F)(F)C1 (centres unmarked) [Compound 244]	< 1000 nM	> 100000 nM	< 1000 nM	< 1000 nM	
COc1cc(C(=O)NCC(O)(c2ccc(OC)c(-c3ccc(F)c(Cl)c3)n2)C(F)(F)F)ccc1OC1CCC1 (centres unmarked) [Compound 245]	< 1000 nM	> 100000 nM	< 1000 nM	< 1000 nM	
COc1cc(C(=O)NCC(O)(c2ccc(OC)c(-c3ccc(F)c(Cl)c3)n2)C(F)(F)F)ccc1OC1(CF)CC1 (centres unmarked) [Compound 248]	< 1000 nM	> 100000 nM	< 1000 nM	< 1000 nM	
COc1cc(C(=O)NCC(O)(c2ccc(OC)c(-c3ccc(F)c(Cl)c3)n2)C(F)(F)F)ccc1OC1(C)CC1 (centres unmarked) [Compound 249]	< 1000 nM	10000 to 100000 nM	< 1000 nM	< 1000 nM	
COc1cc(C(=O)NCC(O)(c2ccc(OC)c(-c3ccc(F)c(Cl)c3)n2)C(F)(F)F)ccc1OC1COC1 (centres unmarked) [Compound 250]		10000 to 100000 nM	< 1000 nM	< 1000 nM	< 1000 nM
COc1cc(C(=O)NCC(O)(c2cc(C(C)(C)N)cc(-c3ccc(F)c(Cl)c3)n2)C(F)(F)F)ccc1O[C@H]1CCNC1=O (some centres unmarked) [Compound 283]	< 1000 nM	10000 to 100000 nM	< 1000 nM	< 1000 nM	
COc1cc(C(=O)NCC(=O)c2cc3c(c(-c4ccc(F)c(C(C)F)c4)n2)OCCC3(C)C)ccc1OCCO (centres unmarked) [Compound 298]	< 1000 nM	10000 to 100000 nM	< 1000 nM	< 1000 nM	
COc1cc(C(=O)NCC(=O)c2cc3c(c(-c4ccc(F)c(Cl)c4)n2)OCC=C3)ccc1OCCF [Compound 302]	1000 to 50000 nM	> 100000 nM	< 1000 nM	< 1000 nM	
COc1cc(C(=O)NCC(=O)c2cc3c(c(-c4ccc(F)c(Cl)c4)n2)OCCC3)ccc1OCCF [Compound 303]	< 1000 nM	> 100000 nM	< 1000 nM	< 1000 nM	
COc1cc(C(=O)NCC(=O)c2cc3c(c(-c4ccc(F)c(Cl)c4)n2)OCCC3)ccc1OCCO [Compound 304]	< 1000 nM	> 100000 nM	< 1000 nM	< 1000 nM	
COc1cc(C(=O)NCC(O)(c2cc3c(c(-c4ccc(F)c(Cl)c4)n2)OCC3C)C2CC2)ccc1OCCO (centres unmarked) [Compound 308]	< 1000 nM	10000 to 100000 nM	< 1000 nM	< 1000 nM	
COc1cc(C(=O)NCC(O)(c2cc3c(c(-c4ccc(F)c(Cl)c4)n2)OCCC3)C2CC2)ccc1OCCO (centres unmarked) [Compound 309]	< 1000 nM	10000 to 100000 nM	< 1000 nM	< 1000 nM	
COc1cc(C(=O)NCC(O)(c2cc3c(c(-c4ccc(F)c(Cl)c4)n2)OCC3)C2CC2)ccc1OCCO (centres unmarked) [Compound 310]		10000 to 100000 nM	< 1000 nM	< 1000 nM	< 1000 nM
COc1cc(C(=O)NCC(O)(c2cc3c(c(-c4ccc(F)c(Cl)c4)n2)OCCC3(C)C)C2CC2)ccc1OCCO (centres unmarked) [Compound 312]	< 1000 nM	10000 to 100000 nM	< 1000 nM	< 1000 nM	
COc1cc(C(=O)NCC(O)(c2ccc(OC)c(-c3ccc(F)c(Cl)c3)n2)C(C)(C)C)ccc1OCCF (centres unmarked) [Compound 313]	1000 to 50000 nM	10000 to 100000 nM	< 10000 nM	1000 to 50000 nM	
CCOc1ccc(C(=O)NCC(O)(c2cc(C(C)(C)N)cc(-c3ccc(F)c(Cl)c3)n2)C(F)(F)F)cc1OC (centres unmarked) [Compound 315]	< 1000 nM	10000 to 100000 nM	< 1000 nM	< 1000 nM	
COc1cc(C(=O)NCC(O)(c2cc(C(C)(C)N)cc(-c3ccc(F)c(Cl)c3)n2)C(F)(F)F)ccc1OC[C@@H](C)O (some centres unmarked) [Compound 317]	< 1000 nM	10000 to 100000 nM	< 1000 nM	< 1000 nM	
COc1cc(C(=O)NCC(O)(c2cc(C(C)(C)N)cc(-c3ccc(F)cc3)n2)C(F)(F)F)ccc1OC1CC1 (centres unmarked) [Compound 318]	< 1000 nM	10000 to 100000 nM	< 1000 nM	< 1000 nM	
COc1cc(C(=O)NCC(O)(c2cc(C(C)(C)N)cc(-c3ccc(F)c(Cl)c3)n2)C(F)(F)F)cc2cccnc12 (centres unmarked) [Compound 321]	< 1000 nM	10000 to 100000 nM	< 1000 nM	< 1000 nM	
COc1cc(C(=O)NCC(O)(c2cc(C(C)(C)N)cc(-c3ccc(F)c(Cl)c3)n2)C(F)(F)F)ccc1OCC(N)=O (centres unmarked) [Compound 322]	< 1000 nM	10000 to 100000 nM	< 1000 nM	< 1000 nM	
